Reference: ChEMBL document CHEMBL3763041, “Design and synthesis of new imidazo[1,2-a]pyridine and imidazo[1,2-a]pyrazine derivatives with antiproliferative activity against melanoma cells” (Eur J Med Chem, 2016)

Experiment: Antiproliferative activity against human A375P cells expressing BRAF V600E mutant after 72 hrs by CellTiter-Glo assay
Type: functional, cell-based

SMILES | IC50
Cc1ccc(C(=O)Nc2cccc(-c3cnc4c(NC(=O)c5ccccc5)cccn34)c2)cc1Cl | 7070 nM
Nc1nccn2c(-c3cccc(NC(=O)c4ccccc4)c3)cnc12 | 850 nM
O=C(Nc1cccc(-c2cnc3c(NC(=O)c4ccc(Cl)c(Cl)c4)nccn23)c1)c1ccc(Cl)c(C(F)(F)F)c1 | 660 nM
O=C(Nc1cccc(-c2cnc3c(NC(=O)c4ccccc4)cccn23)c1)c1ccc(C(F)(F)F)cc1 | 1700 nM
O=C(Nc1cccc(-c2cnc3c(NC(=O)c4ccccc4)cccn23)c1)Nc1cc(C(F)(F)F)cc(C(F)(F)F)c1 | 2080 nM
O=C(Nc1cccc(-c2cnc3c(NC(=O)c4ccccc4)nccn23)c1)c1ccc(F)c(Cl)c1 | 1160 nM
O=C(Nc1cccc(-c2cnc3c(NC(=O)c4cc(Cl)cc(Cl)c4)nccn23)c1)c1ccc(F)c(Cl)c1 | 1150 nM
O=C(Nc1cccc(-c2cnc3c(NC(=O)c4ccc(Cl)c(C(F)(F)F)c4)nccn23)c1)c1ccc(Cl)c(C(F)(F)F)c1 | 2460 nM
COc1ccc(C(=O)Nc2cccc(-c3cnc4c(N)nccn34)c2)cc1OC | 3840 nM
O=C(Nc1cccc(-c2cnc3c(NC(=O)c4ccccc4)cccn23)c1)c1ccc(F)c(Cl)c1 | 8040 nM
O=C(Nc1cccc(-c2cnc3c(NC(=O)c4ccc(C(F)(F)F)cc4)nccn23)c1)c1ccc(F)c(Cl)c1 | 560 nM
O=C(Nc1cccc(-c2cnc3c(NC(=O)c4cc(F)cc(F)c4)nccn23)c1)Nc1ccc(F)cc1F | 5820 nM
O=C(Nc1cccc(-c2cnc3c(NC(=O)c4ccccc4)nccn23)c1)Nc1ccc(Cl)c(C(F)(F)F)c1 | 1410 nM
O=C(Nc1cccn2c(-c3cccc(NC(=O)c4cccc(Cl)c4Cl)c3)cnc12)c1ccccc1 | > 30000 nM
O=C(Nc1cccc(-c2cnc3c(NC(=O)c4ccccc4)cccn23)c1)c1cccc(OC(F)(F)F)c1 | > 30000 nM
Nc1nccn2c(-c3cccc(NC(=O)Nc4ccccc4)c3)cnc12 | 1140 nM
O=C(Nc1cccc(-c2cnc3c(NC(=O)c4ccc(Br)cc4)nccn23)c1)Nc1ccc(F)cc1F | 3750 nM
O=C(Nc1cccc(-c2cnc3c(NC(=O)c4ccccc4)cccn23)c1)Nc1ccc(Cl)c(C(F)(F)F)c1 | 2320 nM
O=C(Nc1cccc(-c2cnc3c(NC(=O)c4ccccc4)cccn23)c1)c1cc(F)cc(F)c1 | 7940 nM
O=C(Nc1cccc(-c2cnc3c(NC(=O)c4ccccc4)nccn23)c1)Nc1ccc(F)cc1F | 1990 nM
CCCS(=O)(=O)Nc1ccc(F)c(C(=O)c2c[nH]c3ncc(-c4ccc(Cl)cc4)cc23)c1F [VEMURAFENIB] | 370 nM
Cc1cc(C)cc(C(=O)Nc2nccn3c(-c4cccc(NC(=O)c5ccc(Cl)c(C(F)(F)F)c5)c4)cnc23)c1 | 180 nM

SMILES | IC50
O=C(Nc1ccc(C(F)(F)F)cc1)Nc1cccc(-c2cnc3c(NC(=O)c4ccccc4)cccn23)c1 | 3010 nM
O=C(Nc1cccc(-c2cnc3c(NC(=O)c4ccc(F)c(Cl)c4)nccn23)c1)Nc1ccc(Cl)c(C(F)(F)F)c1 | 1280 nM
O=C(Nc1cccc(-c2cnc3c(NC(=O)c4ccc(F)c(Cl)c4)nccn23)c1)c1ccc(Cl)c(C(F)(F)F)c1 | 2860 nM
O=C(Nc1cccc(-c2cnc3c(NC(=O)c4ccccc4)cccn23)c1)c1ccccc1 | > 30000 nM
O=C(Nc1cccc(-c2cnc3c(NC(=O)c4cc(C(F)(F)F)cc(C(F)(F)F)c4)nccn23)c1)Nc1ccc(F)cc1F | 110 nM
O=C(Nc1cccc(-c2cnc3c(NC(=O)c4ccccc4)cccn23)c1)Nc1ccc(Cl)c(Cl)c1 | 4460 nM
Cc1ccc(C(=O)Nc2cccc(-c3cnc4c(N)nccn34)c2)cc1Cl | 2270 nM
O=C(Nc1cccc(-c2cnc3c(NC(=O)c4ccccc4)cccn23)c1)c1ccc(OC(F)(F)F)cc1 | 21300 nM
Cc1cc(C)cc(C(=O)Nc2cccc(-c3cnc4c(NC(=O)c5ccccc5)cccn34)c2)c1 | > 30000 nM
O=C(Nc1cccc(-c2cnc3c(NC(=O)c4ccccc4)cccn23)c1)c1cc(Cl)c(F)c(Cl)c1 | 7340 nM
Nc1nccn2c(-c3cccc(NC(=O)Nc4ccc(C(F)(F)F)cc4)c3)cnc12 | 1100 nM
Cc1cc(C)cc(C(=O)Nc2nccn3c(-c4cccc(NC(=O)c5ccc(F)c(Cl)c5)c4)cnc23)c1 | 1640 nM
O=C(Nc1cccc(-c2cnc3c(NC(=O)c4ccc(Br)cc4)nccn23)c1)c1ccc(Cl)c(C(F)(F)F)c1 | 1800 nM
O=C(Nc1cccc(-c2cnc3c(NC(=O)c4ccc(OC(F)(F)F)cc4)nccn23)c1)c1ccc(Cl)c(C(F)(F)F)c1 | 1310 nM
O=C(Nc1cccc(-c2cnc3c(NC(=O)c4cc(F)cc(F)c4)nccn23)c1)Nc1ccc(Cl)c(C(F)(F)F)c1 | 1940 nM
O=C(Nc1cccc(-c2cnc3c(NC(=O)c4ccc(F)c(C(F)(F)F)c4)nccn23)c1)Nc1ccc(F)cc1F | 410 nM
O=C(Nc1cccc(-c2cnc3c(NC(=O)c4cc(F)cc(F)c4)nccn23)c1)c1ccc(Cl)c(C(F)(F)F)c1 | 1620 nM
Nc1nccn2c(-c3cccc(NC(=O)Nc4ccc(Cl)c(C(F)(F)F)c4)c3)cnc12 | 11200 nM
O=C(Nc1cccc(-c2cnc3c(NC(=O)c4ccc(Cl)c(Cl)c4)nccn23)c1)Nc1ccc(F)cc1F | 1890 nM
O=C(Nc1cccc(-c2cnc3c(NC(=O)c4cc(Cl)c(F)c(Cl)c4)nccn23)c1)c1ccc(Cl)c(C(F)(F)F)c1 | > 30000 nM
Nc1nccn2c(-c3cccc(NC(=O)c4ccc(Cl)c(C(F)(F)F)c4)c3)cnc12 | 1410 nM
O=C(Nc1cccc(-c2cnc3c(NC(=O)c4cccc(OC(F)(F)F)c4)nccn23)c1)Nc1ccc(F)cc1F | 950 nM

SMILES | IC50
Nc1nccn2c(-c3cccc(NC(=O)c4ccc(F)cc4F)c3)cnc12 | 7260 nM
O=C(Nc1cccc(-c2cnc3c(NC(=O)c4cccc(C(F)(F)F)c4)nccn23)c1)Nc1ccc(F)cc1F | 440 nM
O=C(Nc1cccc(-c2cnc3c(NC(=O)c4ccc(C(F)(F)F)cc4)nccn23)c1)Nc1ccc(F)cc1F | 2730 nM
O=C(Nc1cccc(-c2cnc3c(NC(=O)c4ccc(F)c(Cl)c4)nccn23)c1)Nc1ccc(F)cc1F | 1550 nM
Cc1ccc(C(=O)Nc2nccn3c(-c4cccc(NC(=O)c5ccc(F)c(Cl)c5)c4)cnc23)cc1Cl | 980 nM
Cc1cc(C)cc(C(=O)Nc2cccc(-c3cnc4c(N)nccn34)c2)c1 | 820 nM
Nc1nccn2c(-c3cccc(NC(=O)c4cccc(C(F)(F)F)c4)c3)cnc12 | 2080 nM
O=C(Nc1cccc(-c2cnc3c(NC(=O)c4cccc(C(F)(F)F)c4)nccn23)c1)Nc1ccc(Cl)c(C(F)(F)F)c1 | 560 nM
O=C(Nc1cccc(-c2cnc3c(NC(=O)c4cc(Cl)c(F)c(Cl)c4)nccn23)c1)Nc1ccc(F)cc1F | 390 nM
Nc1nccn2c(-c3cccc(NC(=O)c4cc(F)cc(F)c4)c3)cnc12 | 460 nM
Cc1ccc(NC(=O)Nc2cccc(-c3cnc4c(N)nccn34)c2)cc1 | 2700 nM
Nc1nccn2c(-c3cccc(NC(=O)c4cccc(Cl)c4Cl)c3)cnc12 | 640 nM
O=C(Nc1cccc(-c2cnc3c(NC(=O)c4ccccc4)nccn23)c1)c1ccc(Cl)c(C(F)(F)F)c1 | 1820 nM
Cc1cc(C)cc(C(=O)Nc2nccn3c(-c4cccc(NC(=O)Nc5ccc(F)cc5F)c4)cnc23)c1 | 120 nM
O=C(Nc1cccc(-c2cnc3c(NC(=O)c4cc(C(F)(F)F)cc(C(F)(F)F)c4)nccn23)c1)c1ccc(F)c(Cl)c1 | 1160 nM
O=C(Nc1cccc(-c2cnc3c(NC(=O)c4ccc(C(F)(F)F)cc4)nccn23)c1)c1ccc(Cl)c(C(F)(F)F)c1 | 1600 nM
Nc1nccn2c(-c3cccc(NC(=O)c4cc(Cl)c(F)c(Cl)c4)c3)cnc12 | 4090 nM
Cc1ccc(C(=O)Nc2nccn3c(-c4cccc(NC(=O)Nc5ccc(Cl)c(C(F)(F)F)c5)c4)cnc23)cc1Cl | 1160 nM
O=C(Nc1cccc(-c2cnc3c(NC(=O)c4cc(F)cc(F)c4)nccn23)c1)c1ccc(F)c(Cl)c1 | 450 nM
Nc1nccn2c(-c3cccc(NC(=O)c4cc(C(F)(F)F)cc(C(F)(F)F)c4)c3)cnc12 | 8320 nM
COc1cccc(C(=O)Nc2cccc(-c3cnc4c(N)nccn34)c2)c1C | 10100 nM
Nc1nccn2c(-c3cccc(NC(=O)Nc4ccc(F)cc4F)c3)cnc12 | 920 nM

SMILES | IC50
O=C(Nc1cccc(-c2cnc3c(NC(=O)c4ccccc4)cccn23)c1)c1ccc(F)c(C(F)(F)F)c1 | > 30000 nM
O=C(Nc1cccc(Cl)c1)Nc1cccc(-c2cnc3c(NC(=O)c4ccccc4)cccn23)c1 | 7360 nM
O=C(Nc1cccc(-c2cnc3c(NC(=O)c4ccc(Cl)c(Cl)c4)nccn23)c1)c1ccc(F)c(Cl)c1 | 900 nM
Nc1nccn2c(-c3cccc(NC(=O)c4ccc(C(F)(F)F)cc4)c3)cnc12 | 7040 nM
O=C(Nc1cccc(-c2cnc3c(NC(=O)c4cccc(C(F)(F)F)c4)nccn23)c1)c1ccc(F)c(Cl)c1 | 1080 nM
O=C(Nc1cccc(-c2cnc3c(NC(=O)c4ccc(Cl)c(C(F)(F)F)c4)nccn23)c1)Nc1ccc(F)cc1F | 800 nM
O=C(Nc1cccc(-c2cnc3c(NC(=O)c4cccc(Cl)c4Cl)nccn23)c1)c1ccc(F)c(Cl)c1 | 23300 nM
COc1ccc(C(=O)Nc2cccc(-c3cnc4c(NC(=O)c5ccccc5)cccn34)c2)cc1OC | 9470 nM
Nc1nccn2c(-c3cccc(NC(=O)Nc4cccc(Cl)c4)c3)cnc12 | 5010 nM
O=C(Nc1cccc(-c2cnc3c(NC(=O)c4cccc(OC(F)(F)F)c4)nccn23)c1)c1ccc(F)c(Cl)c1 | 1500 nM
O=C(Nc1cccc(-c2cnc3c(NC(=O)c4cc(Cl)c(F)c(Cl)c4)nccn23)c1)c1ccc(F)c(Cl)c1 | 1290 nM
O=C(Nc1cccc(-c2cnc3c(NC(=O)c4ccc(Cl)c(C(F)(F)F)c4)nccn23)c1)c1ccc(F)c(Cl)c1 | 1080 nM
O=C(Nc1cccc(-c2cnc3c(NC(=O)c4ccc(C(F)(F)F)cc4)nccn23)c1)Nc1ccc(Cl)c(C(F)(F)F)c1 | 1750 nM
Nc1nccn2c(-c3cccc(NC(=O)Nc4cccc(Cl)c4Cl)c3)cnc12 | 1270 nM
O=C(Nc1cccc(-c2cnc3c(NC(=O)c4ccccc4)cccn23)c1)c1ccc(Cl)c(C(F)(F)F)c1 | > 30000 nM
Nc1nccn2c(-c3cccc(NC(=O)c4cccc(OC(F)(F)F)c4)c3)cnc12 | 13800 nM
Nc1nccn2c(-c3cccc(NC(=O)c4ccc(OC(F)(F)F)cc4)c3)cnc12 | 430 nM
O=C(Nc1cccc(-c2cnc3c(NC(=O)c4cc(C(F)(F)F)cc(C(F)(F)F)c4)nccn23)c1)c1ccc(Cl)c(C(F)(F)F)c1 | 550 nM
Cc1ccc(C)c(C(=O)Nc2cccc(-c3cnc4c(NC(=O)c5ccccc5)cccn34)c2)c1 | > 30000 nM
